Assay results as given in patent US12630785B2, “Liquid fabric care compositions comprising capsules” (The Procter & Gamble Company, priority 2020, dated 2026).

Columns and labels:
[1] = Capsule perfume leakage in liquid fabric enhancer (LFE), headspace SPME GC/MS; format: physicochemical
Description: The testing of capsule leakage in liquid compositions (e.g., liquid fabric enhancer/“LFE” compositions and/or heavy-duty liquid/“HDL” detergents) is performed as follows. […] The 1 gram aliquot in the 7 ml vial is then mixed on a stirring plate for 24 h at 500 rpm, thereby ensuring that the capsules are broken by the grinding action of the stir bar against the bottom of the 7 ml vial. Optical microscopy can be used to verify that no more intact capsules remain. In case such capsules are found, the step is to repeated for an additional 24 h, or until all or almost all capsules are broken. Then, the formulation containing broken capsules is introduced into GC vials in a similar manner as for step (a). This yields total oil samples. It is to be noted that the capsule sample and the total oil sample are not analyzed on the same day, as there is a need to prepare the total oil sample after the capsule sample has been removed from storage. […] The perfume oil composition formulated herein is representative of the perfume oil composition that is present in the slurry. Then the free oil formulation is introduced into GC vials in a similar manner as for step (a). This yields reference samples, which must be used when analyzing both the capsule sample and the total oil sample. […] Two headspace vials are prepared for each sample. The sealed headspace vials are then allowed to equilibrate. Samples reach equilibrium after 3 hours at room temperature, but can be left to sit longer without detriment or change to the results, up until 24 hours after sealing the headspace vial. After equilibrating, the samples are analyzed by GC/MS. […] The perfume composition is analyzed by fast GC/MS in full scan mode. Ion extraction of the specific mass for each component is obtained. The leakage is calculated as follows, separately for the capsule sample and total oil sample, where “Area” denotes the area under the chromatogram peak corresponding to the PRM of interest: Once calculated for all PRMs for both the total oil sample and the capsule sample, the corrected PRM leakage can be calculated using the following formula: Once the corrected PRM leakage has been calculated for all PRMs, the Average leakage can be found by taking the arithmetic mean of each corrected PRM leakage. […] The resulting products are stored for one week at 35° C. At the end of the storage period, samples of each product composition are analyzed for perfume leakage out of the capsule using headspace analysis. The data is reported as a percentage, determined by comparing the amount of the individual perfume raw materials found in the headspace to the amount originally provided to the capsules.

[2] = Capsule perfume leakage in heavy-duty liquid (HDL) detergent, headspace SPME GC/MS; format: physicochemical
Description: The testing of capsule leakage in liquid compositions (e.g., liquid fabric enhancer/“LFE” compositions and/or heavy-duty liquid/“HDL” detergents) is performed as follows. […] The 1 gram aliquot in the 7 ml vial is then mixed on a stirring plate for 24 h at 500 rpm, thereby ensuring that the capsules are broken by the grinding action of the stir bar against the bottom of the 7 ml vial. Optical microscopy can be used to verify that no more intact capsules remain. In case such capsules are found, the step is to repeated for an additional 24 h, or until all or almost all capsules are broken. Then, the formulation containing broken capsules is introduced into GC vials in a similar manner as for step (a). This yields total oil samples. It is to be noted that the capsule sample and the total oil sample are not analyzed on the same day, as there is a need to prepare the total oil sample after the capsule sample has been removed from storage. […] The perfume oil composition formulated herein is representative of the perfume oil composition that is present in the slurry. Then the free oil formulation is introduced into GC vials in a similar manner as for step (a). This yields reference samples, which must be used when analyzing both the capsule sample and the total oil sample. […] Two headspace vials are prepared for each sample. The sealed headspace vials are then allowed to equilibrate. […] After equilibrating, the samples are analyzed by GC/MS. […] The perfume composition is analyzed by fast GC/MS in full scan mode. Ion extraction of the specific mass for each component is obtained. The leakage is calculated as follows, separately for the capsule sample and total oil sample, where “Area” denotes the area under the chromatogram peak corresponding to the PRM of interest: Once calculated for all PRMs for both the total oil sample and the capsule sample, the corrected PRM leakage can be calculated using the following formula: Once the corrected PRM leakage has been calculated for all PRMs, the Average leakage can be found by taking the arithmetic mean of each corrected PRM leakage. […] The resulting products are stored for one week at 35° C. At the end of the storage period, samples of each product composition are analyzed for perfume leakage out of the capsule using headspace analysis. The data is reported as a percentage, determined by comparing the amount of the individual perfume raw materials found in the headspace to the amount originally provided to the capsules.

[3] = PRM of Perfume 1 out of Comparative Example 4-1 capsules (polyacrylate shell), LFE Composition 1, 0.25 wt % perfume
[4] = PRM of Perfume 1 out of Comparative Example 6-1 capsules (no second shell component), LFE Composition 1
[5] = PRM of Perfume 1 out of Comparative Example 10-1 capsules (per EP2500087B1), LFE Composition 1
[6] = PRM of Perfume 1 out of Comparative Example 10-2 capsules (per WO2010013250A2, with IPM), LFE Composition 1
[7] = PRM of Perfume 1 out of Example 2, Sample A capsules, LFE Composition 1 (Ester Quat 1)
[8] = PRM of Perfume 1 out of Example 2, Sample A capsules, LFE Composition 2 (Ester Quat 2)
[9] = PRM of Perfume 1 out of Example 2, Sample A capsules, LFE Composition 3 (Ester Quat 3)
[10] = PRM of Perfume 1 out of Example 4-1 capsules (silica shell), LFE Composition 1, 0.25 wt % perfume
[11] = PRM of Perfume 1 out of Example 6-1 capsules (w/ second shell component), LFE Composition 1
[12] = PRM of Perfume 1 out of Example 10-1 capsules (Sample F, Perfume 1/IPM 40/60), LFE Composition 1
[13] = PRM of Perfume 1 out of Example 10-2 capsules (Sample A), LFE Composition 1
[14] = PRM of Perfume 2 out of Capsule Sample C, LFE Composition 1
[15] = PRM of Perfume 3 out of Capsule Sample D, LFE Composition 1
[16] = PRM of Perfume 1 out of Comparative Example 5-1 capsules (polyacrylate shell)
[17] = PRM of Perfume 1 out of Comparative example 5-2 capsules (per EP2500087B1)
[18] = PRM of Perfume 1 out of Comparative example 5-3 capsules (per WO2010013250A2)
[19] = PRM of Perfume 1 out of Example 5-1 capsules (silica shell)
[20] = PRM of Perfume 4 out of Comparative Example 9-1 capsules (per EP3078415A), LFE Composition 1
[21] = PRM of Perfume 4 out of Comparative Example 9-2 capsules (per EP3078415A, additional TEOS), LFE Composition 1
[22] = PRM of Perfume 4 out of Example 9-1 capsules (Sample E), LFE Composition 1

SMILES | Leakage (as %) after 1 week at 35° C. [1, 3] [%] | Leakage (as %) after 1 week at 35° C. [1, 4] [%] | Leakage (as %) after 1 week at 35° C. [1, 5] [%] | Leakage (as %) after 1 week at 35° C. [1, 6] [%] | Leakage (as %) after 1 week at 35° C. [1, 7] [%] | Leakage (as %) after 1 week at 35° C. [1, 8] [%] | Leakage (as %) after 1 week at 35° C. [1, 9] [%] | Leakage (as %) after 1 week at 35° C. [1, 10] [%] | Leakage (as %) after 1 week at 35° C. [1, 11] [%] | Leakage (as %) after 1 week at 35° C. [1, 12] [%] | Leakage (as %) after 1 week at 35° C. [1, 13] [%] | Leakage (as %) after 1 week at 35° C. [1, 14] [%] | Leakage (as %) after 1 week at 35° C. [1, 15] [%] | Leakage (as %) after 1 week at 35° C. [2, 16] [%] | Leakage (as %) after 1 week at 35° C. [2, 17] [%] | Leakage (as %) after 1 week at 35° C. [2, 18] [%] | Leakage (as %) after 1 week at 35° C. [2, 19] [%] | Leakage (as %) after 1 week at 35° C. [1, 20] [%] | Leakage (as %) after 1 week at 35° C. [1, 21] [%] | Leakage (as %) after 1 week at 35° C. [1, 22] [%]
CCOC(=O)C(C)CC (stereo not drawn) [Ethyl 2-methyl butyrate] | 61 | 101 | 100 | 100 | 1.3 | 1.0 | 2.2 | 4 | 6 | 28 | 6 | 21 | 14 | 75 | 103 | 99 | 38 | – | – | –
CC12CCC(CC1)C(C)(C)O2 [Eucalyptol] | 5 | 72 | 97 | 96 | 2.1 | 1.3 | 2.0 | 7 | 8 | 26 | 8 | – | – | 1 | 104 | 101 | 28 | – | – | –

Second part, the molecule after the results:

Leakage (as %) after 1 week at 35° C. [1, 3] [%] | Leakage (as %) after 1 week at 35° C. [1, 4] [%] | Leakage (as %) after 1 week at 35° C. [1, 5] [%] | Leakage (as %) after 1 week at 35° C. [1, 6] [%] | Leakage (as %) after 1 week at 35° C. [1, 7] [%] | Leakage (as %) after 1 week at 35° C. [1, 8] [%] | Leakage (as %) after 1 week at 35° C. [1, 9] [%] | Leakage (as %) after 1 week at 35° C. [1, 10] [%] | Leakage (as %) after 1 week at 35° C. [1, 11] [%] | Leakage (as %) after 1 week at 35° C. [1, 12] [%] | Leakage (as %) after 1 week at 35° C. [1, 13] [%] | Leakage (as %) after 1 week at 35° C. [1, 14] [%] | Leakage (as %) after 1 week at 35° C. [1, 15] [%] | Leakage (as %) after 1 week at 35° C. [2, 16] [%] | Leakage (as %) after 1 week at 35° C. [2, 17] [%] | Leakage (as %) after 1 week at 35° C. [2, 18] [%] | Leakage (as %) after 1 week at 35° C. [2, 19] [%] | Leakage (as %) after 1 week at 35° C. [1, 20] [%] | Leakage (as %) after 1 week at 35° C. [1, 21] [%] | Leakage (as %) after 1 week at 35° C. [1, 22] [%] | SMILES
9 | 83 | 90 | 95 | 2.3 | 1.1 | 1.2 | 8 | 8 | 18 | 8 | 9 | 9 | 2 | 105 | 102 | 27 | 70 | 76 | 17 | CCC(C)(O)CCCC(C)C (stereo not drawn) [Tetrahydro linalool]
10 | 86 | 88 | 95 | 2.4 | 1.2 | 1.2 | 8 | 7 | 17 | 7 | – | – | 3 | 107 | 105 | 26 | – | – | – | CCC(C)CCCC(C)(C)O (stereo not drawn) [Tetrahydro myrcenol]
4 | 20 | 89 | 94 | 1.2 | 0.8 | 1.2 | 5 | 7 | 17 | 7 | 6 | 8 | 1 | 107 | 104 | 26 | 67 | 72 | 13 | CC(=O)OC1CC2CC1C1CC=CC21 (stereo not drawn) [Verdyl acetate]
